Source: the supplement of paper PMC10307832

Experiments:
Assay in all cases: relative viability (nuclei count vs DMSO), 5 days (fraction); higher = more cells survive
[1] = compound: C1CC2=C(C1)C=C(C=C2)OC3=NC(=C4C(=N3)N(C=N4)CC5=CC=C(C=C5)C6=CC=CC=C6)N[C@@H](CC7=CC=CC=C7)CO [QS11] + CC(=O)c1c(C)c2cnc(Nc3ccc(N4CCNCC4)cn3)nc2n(C2CCCC2)c1=O [Palbociclib] (partner 0.5 µM)
Outline: (§1)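 Five library-drug doses in √10 steps were combined with a fixed anchor-drug dose, or a single drug was given alone, by pin tool to lung cancer cell lines in 1536-well plates the day after seeding. Nuclei were stained and counted after 5 days. Relative viability is the nuclei count in treated wells over that in vehicle wells, taken as the median of duplicate plates.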

[2] = compound: C1CC2=C(C1)C=C(C=C2)OC3=NC(=C4C(=N3)N(C=N4)CC5=CC=C(C=C5)C6=CC=CC=C6)N[C@@H](CC7=CC=CC=C7)CO [QS11] + O=C(c1cc(Cc2n[nH]c(=O)c3ccccc23)ccc1F)N1CCN(C(=O)C2CC2)CC1 [Olaparib] (partner 8 µM)
Outline: as §1

[3] = compound: C[As](C)SC[C@H](NC(=O)CC[C@H](N)C(=O)O)C(=O)NCC(=O)O [Darinaparsin] + CC1(C)CCC(c2ccc(Cl)cc2)=C(CN2CCN(c3ccc(C(=O)NS(=O)(=O)c4ccc(N[C@H](CCN5CCOCC5)CSc5ccccc5)c(S(=O)(=O)C(F)(F)F)c4)cc3)CC2)C1 [Navitoclax] (partner 0.5 µM)
Outline: as §1

[4] = compound: C[As](C)SC[C@H](NC(=O)CC[C@H](N)C(=O)O)C(=O)NCC(=O)O [Darinaparsin] + NC(=O)Nc1cc(-c2cccc(F)c2)sc1C(=O)N[C@H]1CCCNC1 [AZD7762] (partner 0.2 µM)
Outline: as §1

| Cell Line | relative viability ([1]; first compound 0.08 µM) | relative viability ([1]; first compound 0.253 µM) | relative viability ([1]; first compound 0.8 µM) | relative viability ([1]; first compound 2.53 µM) | relative viability ([1]; first compound 8 µM) | relative viability ([2]; first compound 0.08 µM) | relative viability ([2]; first compound 0.253 µM) | relative viability ([2]; first compound 0.8 µM) | relative viability ([2]; first compound 2.53 µM) | relative viability ([2]; first compound 8 µM) | relative viability ([3]; first compound 0.08 µM) | relative viability ([3]; first compound 0.8 µM) | relative viability ([3]; first compound 2.53 µM) | relative viability ([3]; first compound 8 µM) | relative viability ([4]; first compound 0.08 µM) | relative viability ([4]; first compound 0.8 µM) | relative viability ([4]; first compound 2.53 µM) | relative viability ([4]; first compound 8 µM) |
| --- | --- | --- | --- | --- | --- | --- | --- | --- | --- | --- | --- | --- | --- | --- | --- | --- | --- | --- |
| LC-2-ad | 0.512 | 0.47 | 0.405 | 0.451 | 0.501 | 0.668 | 0.719 | 0.551 | 0.706 | 0.781 | 0.551 | 0.324 | 0.421 | 0.487 | 1.07 | 0.859 | 0.679 | 1.02 |
| EPLC-272H |  | 0.315 | 0.31 | 0.305 | 0.31 | 0.707 | 0.888 | 0.716 | 0.808 | 0.505 | 1.26 | 1.37 | 1.07 | 0.983 | 0.206 | 0.176 | 0.117 | 0.215 |
| HCC-44 | 1.07 | 0.998 | 0.732 | 0.901 | 0.866 | 1.05 | 1.09 | 0.597 | 0.989 | 0.987 | 1.18 | 1 | 0.864 | 1.19 | 1.02 | 1.03 | 1.08 | 1.05 |
| NCI-H441 | 0.213 | 0.244 | 0.255 | 0.201 | 0.227 | 0.511 | 0.54 | 0.518 | 0.364 | 0.463 | 0.773 | 0.593 | 0.615 | 0.962 | 1.2 | 1.08 | 0.815 | 1.13 |
| LU99A | 0.421 | 0.469 | 0.437 | 0.4 | 0.395 | 0.253 | 0.311 | 0.27 | 0.258 | 0.253 | 0.77 | 0.886 | 0.777 | 0.944 | 0.455 | 0.273 | 0.328 | 0.383 |
| PC-14 |  | 0.608 | 0.455 | 0.44 | 0.434 | 0.253 | 0.339 | 0.249 | 0.272 | 0.38 | 1.19 | 0.981 | 1.04 | 1.17 | 0.481 | 0.361 | 0.422 | 0.379 |
| NCI-H2085 | 0.474 | 0.509 | 0.402 | 0.433 | 0.475 | 0.741 | 0.846 | 0.773 | 0.785 | 0.976 | 1.36 | 1.18 | 1.09 | 1.2 | 0.91 | 0.934 | 0.892 | 1.17 |
| NCI-H1395 | 0.596 | 0.654 | 0.628 | 0.664 | 0.666 | 0.464 | 0.463 | 0.446 | 0.468 | 0.472 | 1.15 | 1.06 | 1.03 | 0.902 | 0.4 | 0.411 | 0.385 | 0.394 |
| NCI-H1666 | 0.641 | 0.651 | 0.586 | 0.621 | 0.516 | 0.78 | 0.75 | 0.697 | 0.693 | 0.516 | 1.09 | 0.938 | 1.23 | 1.09 | 0.706 | 0.897 | 0.915 | 0.873 |
| NCI-H647 | 0.412 | 0.367 | 0.394 | 0.325 | 0.394 | 0.676 | 0.523 | 0.541 | 0.604 | 0.664 | 1.42 | 1.09 | 0.981 | 1.04 | 0.81 | 0.572 | 0.375 | 0.534 |
| A-427 | 0.553 | 0.582 |  | 0.551 | 0.574 | 0.756 | 0.67 |  | 0.656 | 0.559 | 0.961 | 1 | 1.03 | 0.98 | 0.696 | 0.681 | 0.747 | 0.589 |
| NCI-H1915 | 0.53 | 0.644 |  | 0.5 | 0.486 | 0.227 | 0.25 |  | 0.259 | 0.275 | 0.88 | 0.82 | 0.771 | 0.812 | 0.768 | 0.738 | 0.674 | 0.729 |
| NCI-H1355 | 0.43 | 0.314 | 0.299 | 0.35 | 0.38 | 0.624 | 0.732 | 0.693 | 0.678 | 0.75 | 1.08 | 0.94 | 0.836 | 1.05 | 0.933 | 0.72 | 0.568 | 0.828 |
| HCC-15 | 0.765 | 0.808 | 0.579 | 0.701 | 0.542 | 0.668 | 0.79 | 0.61 | 0.735 | 0.634 | 0.893 | 0.7 | 0.651 | 0.83 | 1.48 | 1.32 | 1.11 | 1.12 |
| HCC-78 | 0.462 | 0.531 | 0.464 | 0.457 | 0.358 | 0.665 | 1.02 | 0.83 | 0.859 | 0.806 | 0.841 | 0.729 | 0.842 | 0.84 | 0.587 | 0.706 | 0.58 | 0.699 |
| NCI-H23 | 0.492 | 0.387 | 0.354 | 0.347 | 0.329 | 0.297 | 0.226 | 0.245 | 0.269 | 0.264 | 1.09 | 0.917 | 0.963 | 1.02 | 0.226 | 0.229 | 0.23 | 0.247 |
| NCI-H838 | 0.213 | 0.187 | 0.191 | 0.223 | 0.213 | 0.873 | 0.743 | 0.582 | 0.718 | 0.709 | 1.51 | 1.15 | 1.15 | 1.5 | 1.03 | 0.963 | 0.971 | 1.07 |
| NCI-H1793 | 0.335 | 0.274 | 0.29 | 0.404 | 0.491 | 0.979 | 0.837 | 0.827 | 0.847 | 1.06 | 0.649 | 0.366 | 0.333 | 0.442 | 0.581 | 0.553 |  | 0.536 |
